Experimental data: patent US4810702A, “Antibacterial agent for mammal use comprising cephalosporin derivatives as an effective ingredient” (Meiji Seika Kaisha, Ltd., priority 1986, dated 1989)
In brackets after ≈: the same amount, converted by molar mass. Where a name gives a salt, the structure may show the parent alone. Read-outs that look alike come from different tables or passages of the source.

Tests used:
[1] = system: Citrobacter freundii GN346; assay: Minimum growth inhibitory concentration, Test Example 1; format: cell-based
Experimental: (§1) The minimum growth inhibitory concentration (MIC) against various bacteria was measured in a bacterial count of 10^6 CFU/ml using medium SDA (NISSUI) in accordance with the Japan Chemotherapy Association.

[2] = system: Bacillus subtilis ATCC6633; assay: as above; format: cell-based
Experimental: as §1

Escherichia coli 255/S-1 = assay: as above; format: cell-based; settings: 255/S1, 10^6 CFU/ml, medium SDA
Experimental: as §1

[3] = system: Pseudomonas aeruginosa M-0148; assay: as above; format: cell-based
Experimental: as §1

[4] = system: Pseudomonas aeruginosa IAM-1007; assay: as above; format: cell-based
Experimental: as §1

[5] = system: Staphylococcus epidermidis ATCC 14990; assay: as above; format: cell-based
Experimental: as §1

[6] = system: Pseudomonas aeruginosa Ml Rms139; assay: as above; format: cell-based; settings: MLRMS139, read-out: Minimum Growth Inhibitory Concentration MIC
Experimental: as §1

[7] = system: Citrobacter freundii GN346/16-10; assay: as above; format: cell-based; settings: GN346, read-out: Minimum Growth Inhibitory Concentration MIC
Experimental: as §1

[8] = system: Escherichia coli W3630 RGN823; assay: as above; format: cell-based; settings: W3630RGN823, read-out: Minimum Growth Inhibitory Concentration MIC
Experimental: as §1

[9] = system: Escherichia coli W3630 RGN238; assay: as above; format: cell-based; settings: W3630RGN238, read-out: Minimum Growth Inhibitory Concentration MIC
Experimental: as §1

[10] = system: Citrobacter freundii GN346/16; assay: as above; format: cell-based
Experimental: as §1

Escherichia coli 255 = assay: as above; format: cell-based; settings: 10^6 CFU/ml, medium SDA
Experimental: as §1

[11] = system: Staphylococcus aureus Smith (I); assay: as above; format: cell-based; settings: read-out: Minimum Growth Inhibitory Concentration MIC
Experimental: as §1

Escherichia coli GN206 [12] = assay: Minimum growth inhibitory concentration; format: cell-based
Experimental: as §1

[13] = Acute toxicity test, Test Example 5; format: in vivo; settings: mouse, in vivo, iv; ICR male mice, tail vein; 14 days
Experimental: (§2) 75 mg of each test compound was dissolved in 0.4 ml of phuysiological saline. The solution was administered to the tail vein of ICR strain male mice (mean body weight of 25 g, 5 weeks old) of one group being 3 mice. Observation was made for 14 days.

ICR strain male mice = assay: Acute toxicity test, Test Example 5; format: in vivo; settings: for survival: ICR male mice, 75 mg in 0.4 ml, tail vein, 14 days
Experimental: as §2

[14] = system: Klebsiella pneumoniae PCI 602; assay: Effect to prevent infections in mice, Test Example 6; format: in vivo, ICR strain male mice; settings: mouse, i.p. infection 6.5 × 10^4 CFU/mouse with mucin; s.c. one hour after; 7 days
Experimental: (§3) The culture solution of each test bacterium was adjusted to a bacterial concentration shown in the table and then supplemented with 2.5% (W/V) of mucin. The solution was intraperitoneally administered to ICR strain male mice (mean body weight of 20 g, 4 weeks old) of one group being 8 at a dose of 0.5 ml to experimentally cause infection. Each test compound was subcutaneously administered one hour after (provided that in case of Pseudomonas aeruginosa was given one hour and 3 hours after). Observation was made for 7 days.

Escherichia coli GN206 [15] = assay: as above; format: in vivo, ICR strain male mice; settings: mouse, i.p. infection 9.5 × 10^6 CFU/mouse with mucin; s.c. one hour after; 7 days
Experimental: as §3

[16] = system: Pseudomonas aeruginosa GN10362; assay: as above; format: in vivo, ICR strain male mice; settings: mouse, i.p. infection 8.8 × 10^5 CFU/mouse with mucin; s.c. one hour and 3 hours after; 7 days
Experimental: as §3

Escherichia coli No. 29 [17] = assay: as above; format: in vivo, ICR strain male mice; settings: mouse, i.p. infection 2.3 × 10^5 CFU/mouse with mucin; s.c. one hour after; 7 days
Experimental: as §3

[18] = system: Klebsiella pneumoniae PCI 602; assay: MIC of the infecting strain, Table 2; format: cell-based; settings: PCI602
Experimental: as §1

[19] = system: Pseudomonas aeruginosa GN10362; assay: MIC of the infecting strain, Table 2; format: cell-based
Experimental: as §1

Escherichia coli No. 29 [20] = assay: MIC of the infecting strain, Table 2; format: cell-based
Experimental: as §1

[21] = system: clinically isolated Klebsiella pneumoniae, Proteus vulgaris and Pseudomonas aeruginosa; assay: Distribution in sensitivity of clinically isolated strains, Test Examples 2 to 4; format: cell-based; settings: compared to known compounds
Experimental: Each MIC of various bacteria clinically isolated from patients was measured in a manner similar to Test Example 1 and its percentage to the all strains to reach the inhibitory concentration was accumulatively expressed .
Distribution in sensitivity to pneumobacilli clinically isolated.
Distribution in sensitivity to variant clinically isolated.
Distribution in sensitivity to Pseudomonas aeruginosa clinically isolated.

[22] = system: Escherichia coli, pneumobacilli and Pseudomons aeruginosa; assay: Effect to prevent infections, overall comparison with known compounds, Test Example 6; format: in vivo, ICR strain male mice; settings: compared to the known compounds (CAZ, HR-810)
Experimental: as §3

[23] = Concentration in blood plasma (rat) and in serum (common marmoset), Test Examples 7 and 8; format: in vivo, SD strain male rats; female common marmosets; settings: various animal tests
Experimental: A test compound was dissolved in physiological saline in a concentration of 20 mg/ml. The solution was given in the tail vein of SD strain male rats (mean body weight of 325 g) of one group being 4 in a dose of 1 ml/kg. Blood was collected from the femoral artery in course of time and blood plasma was isolated from the blood. A concentration of the test compound in blood plasma was quantitatively assayed by high performance liquid chromatography. A test compound was dissolved in 0.05M phosphate buffer (pH 6.5) in a concentration of 2.0 mg/ml. The solution was intramuscularly administered to female common marmosets of one group being 2 in a dose of 5 ml/kg. Blood was collected from the femoral artery with passage of time and serum was separated from the blood followed by quantitative assay by bioassay using Escherichia coli K-12 HW 8236 as a bacterium for the assay.

[24] = Citrobacter freundii, GN346, read-out: Minimum Growth Inhibitory Concentration MIC
[25] = Citrobacter freundii GN346, 10^6 CFU/ml, medium SDA, read-out: Minimum Growth Inhibitory Concentration MIC
[26] = Bacillus subtilis ATCC6633, 10^6 CFU/ml, medium SDA, read-out: Minimum Growth Inhibitory Concentration MIC
[27] = M0148, Pseudomonas aeruginosa M-0148, 10^6 CFU/ml, medium SDA, read-out: Minimum Growth Inhibitory Concentration MIC
[28] = IAM1007, Pseudomonas aeruginosa IAM-1007, 10^6 CFU/ml, medium SDA, read-out: Minimum Growth Inhibitory Concentration MIC
[29] = ATCC14990, Staphylococcus epidermidis ATCC 14990, 10^6 CFU/ml, medium SDA, read-out: Minimum Growth Inhibitory Concentration MIC
[30] = Citrobacter freundii GN346/16, 10^6 CFU/ml, medium SDA, read-out: Minimum Growth Inhibitory Concentration MIC
[31] = Staphylococcus aureus Smith (I), 10^6 CFU/ml, medium SDA
[32] = Escherichia coli GN206, Table 1, 10^6 CFU/ml, medium SDA, read-out: Minimum Growth Inhibitory Concentration MIC
[33] = Klebsiella pneumoniae PCI 602, Table 2, read-out: MIC

In the case of CC(C)(ON=C(C(=O)NC1C(=O)N2C(C(=O)[O-])=C(C[n+]3ccccc3)CSC12)c1csc(N)n1)C(=O)O [CAZ, (6R, 7R)-7-[(Z)-2-(2-aminothiazol-4-yl)-2-(2-methylcarboxyisoprop;oxyimino)acetamido]-3-pyridinium-1-ylmethyl-ceph-3-em-4-carboxylate], the MIC [1, 24] is reported as 25 µg/mL (≈ 45.7 µM), the MIC ([2]; Bacillus subtilis, ATCC6633, read-out: Minimum Growth Inhibitory Concentration MIC) is reported as 3.13 µg/mL (≈ 5.73 µM) and the MIC (Escherichia coli 255/S-1) is reported as 0.39 µg/mL (≈ 0.714 µM). The MIC ([3]; Pseudomonas aeruginosa, M0148, read-out: Minimum Growth Inhibitory Concentration MIC) was 1.56 µg/mL (≈ 2.85 µM), the MIC ([4]; Pseudomonas aeruginosa, IAM1007, read-out: Minimum Growth Inhibitory Concentration MIC) was 0.78 µg/mL (≈ 1.43 µM) and the MIC ([5]; Staphylococcus epidermidis, ATCC14990, read-out: Minimum Growth Inhibitory Concentration MIC) was 3.13 µg/mL (≈ 5.73 µM). The MIC [6] was 0.78 µg/mL (≈ 1.43 µM), the MIC [7] was 25 µg/mL (≈ 45.7 µM) and the MIC [8] was 0.2 µg/mL (≈ 0.366 µM). For the same compound, the MIC [9] was 0.2 µg/mL (≈ 0.366 µM), the MIC [10, 24] was 0.78 µg/mL (≈ 1.43 µM) and the MIC (Escherichia coli 255) was 12.5 µg/mL (≈ 22.9 µM). It also gave an MIC ([11]; Staphylococcus aureus) of 3.13 µg/mL (≈ 5.73 µM), an MIC (Escherichia coli GN206 [12]; Escherichia coli, GN206) of 1.56 µg/mL (≈ 2.85 µM) and an MIC (Escherichia coli GN206 [12]; Escherichia coli, GN206, read-out: Minimum Growth Inhibitory Concentration MIC) of 1.56 µg/mL (≈ 2.85 µM). The LD50 at 336 h [13] was ≥ 4000 mg/kg, the survival (ICR strain male mice) was “survived” and the “ED50 (preventive effect)” value [14] was 0.57 mg/mouse. For the same compound, the “ED50 (preventive effect)” value (Escherichia coli GN206 [15]) was 1.0 mg/mouse, the “ED50 (preventive effect)” value [16] was 8 mg/mouse and the “ED50 (preventive effect)” value (Escherichia coli No. 29 [17]) was 0.006 mg/mouse. It also gave an MIC ([18]; Klebsiella pneumoniae) of 0.2 µg/mL, an MIC ([19]; Pseudomonas aeruginosa, GN10362) of 1.56 µg/mL and an MIC (Escherichia coli No. 29 [20]) of 0.2 µg/mL.

CC[n+]1ccc(SCC2=C(C(=O)[O-])N3C(=O)[C@@H](NC(=O)/C(=N\O[C@@H](C)C(=O)O)c4csc(N)n4)[C@H]3SC2)cc1 [Compound I, (6R, 7R)-7-[(Z)-2-(2-aminothiazol-4-yl)-2-{(1S)-carboxyethoxyimino}acetamido]-3-(1-ethylpyridinium-4-ylthiomethyl)-ceph-3-em-4-carboxylate monosodium salt] showed an MIC [1, 25] of 6.25 µg/mL, an MIC [2, 26] of 3.13 µg/mL and an MIC (Escherichia coli 255/S-1) of 0.1 µg/mL. It also gave an MIC [3, 27] of 0.78 µg/mL, an MIC [4, 28] of 0.78 µg/mL and an MIC [5, 29] of 3.13 µg/mL. For the same compound, the MIC [6] was 0.78 µg/mL, the MIC [8] was 0.05 µg/mL and the MIC [9] was 0.2 µg/mL. It also gave an MIC [10, 30] of 0.39 µg/mL, an MIC (Escherichia coli 255) of 0.2 µg/mL and an MIC [11, 31] of 1.56 µg/mL. The MIC (Escherichia coli GN206 [12]; [32]) was 0.1 µg/mL, the MIC (Escherichia coli GN206 [12]; Escherichia coli GN206, Table 2, read-out: MIC) was 0.2 µg/mL and the “distribution in sensitivity to clinically isolated strains (in words)” value [21] was “much more excellent antibacterial activity over a wide range”. The LD50 at 336 h [13] was ≥ 4000 mg/kg, the survival (ICR strain male mice) was “survived” and the “toxicity (in words)” value (ICR strain male mice; various animal tests) was “low toxicity”. For the same compound, the “effect to prevent infections compared to the known compounds (in words)” value [22] was “equal to or superior to them”, the “ED50 (preventive effect)” value [14] was 0.33 mg/mouse and the “ED50 (preventive effect)” value (Escherichia coli GN206 [15]) was 0.36 mg/mouse. The “ED50 (preventive effect)” value [16] was 4.5 mg/mouse, the “ED50 (preventive effect)” value (Escherichia coli No. 29 [17]) was 0.002 mg/mouse and the MIC [18, 33] was 0.05 µg/mL. The MIC ([19]; Pseudomonas aeruginosa GN10362, Table 2, read-out: MIC) was 1.56 µg/mL, the MIC (Escherichia coli No. 29 [20]) was 0.1 µg/mL and the “durability in a concentration to exhibit the antibacterial activity (in words)” value [23] was “sufficient durability in a concentration to exhibit the antibacterial activity”. The “transfer into blood and organ (in words)” value [23] was “rapidly transferred into blood and organ”.

CON=C(C(=O)NC1C(=O)N2C(C(=O)[O-])=C(C[n+]3cccc4c3CCC4)CSC12)c1csc(N)n1 [HR-810, (6R, 7R)-7-[(Z)-2-(2-aminothiazol-4-yl)-2-(methoxyimino)acetamido]-3-cyclopentenopyridinium-1-ylmethyl-ceph-3-em-4-carboxylate] gave an MIC [1, 25] of 0.78 µg/mL (≈ 1.52 µM), an MIC [2, 26] of 0.1 µg/mL (≈ 0.194 µM) and an MIC (Escherichia coli 255/S-1) of 0.05 µg/mL (≈ 0.0972 µM). The MIC [3, 27] was 12.5 µg/mL (≈ 24.3 µM), the MIC [4, 28] was 12.5 µg/mL (≈ 24.3 µM) and the MIC [5, 29] was 0.39 µg/mL (≈ 0.758 µM). The MIC [6] was 3.13 µg/mL (≈ 6.08 µM), the MIC [8] was 0.1 µg/mL (≈ 0.194 µM) and the MIC [9] was 0.78 µg/mL (≈ 1.52 µM). The MIC [10, 30] was 0.05 µg/mL (≈ 0.0972 µM), the MIC (Escherichia coli 255) was 0.2 µg/mL (≈ 0.389 µM) and the MIC [11, 31] was 0.39 µg/mL (≈ 0.758 µM). For the same compound, the MIC (Escherichia coli GN206 [12]; [32]) was < 0.025 µg/mL, the LD50 at 336 h [13] was ≥ 4000 mg/kg and the survival (ICR strain male mice) was “survived”. The “ED50 (preventive effect)” value [14] was 1.3 mg/mouse, the “ED50 (preventive effect)” value (Escherichia coli No. 29 [17]) was 0.006 mg/mouse and the MIC [18, 33] was 0.05 µg/mL. For the same compound, the MIC (Escherichia coli No. 29 [20]) was 0.05 µg/mL.
